Assay [1] deals with T1, human DGKα (Homo sapiens (Human), UniProt P23743). Description: biochemical. As to conditions: detergent/lipid micelle substrate; read-out: DGKα IC50. The method in brief:
(§1)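 Full-length human DGKζ (and DGKα), C-terminal His-tagged, Sf9-expressed, with phosphatidylserine/DAG micelles in 50 mM octyl glucoside; buffer 50 mM MOPS pH 7.5, 100 mM NaCl, 10 mM MgCl2, 1 μM CaCl2, 1 mM DTT.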

Assay [2] has as its target T1, human DGKα. Description: DGKα LIPGLO assay (extruded liposome substrate). In kind it is biochemical. The method in brief:
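Human full-length DGKα, His-tagged and produced in Sf9 cells, assayed at 20 nM (4× stock) on extruded liposomes of PS, 0.25 mM DAG and 2.75 mM PC, preincubated 10 min. Reaction started with 300 μM ATP (stock) and ran 1 h in MOPS pH 7.5/MgCl2/CaCl2/DTT buffer.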

For assay [3], the target named is T2, human DGKζ (Homo sapiens (Human), UniProt Q13574). Description: DGKζ LIPGLO assay (extruded liposome substrate). In kind it is biochemical. As to conditions: extruded liposome substrate; read-out: DGKζ LIPGLO IC50. Summed up:
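Recombinant DGKζ (Sf9-expressed, Ni/SEC/SP-purified) preincubated 10 min with extruded 100 nm PC/DAG/PS liposomes in 50 mM MOPS pH 7.5, 100 mM NaCl, 10 mM MgCl2, 1 μM CaCl2, 1 mM DTT. Started with 300 uM ATP solution (stock, pre-addition); 1 hr reaction. ADP-Glo luminescence; IC50 from 11 concentrations.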

The target of assay [4] is T2, human DGKζ. Description: DGKζ assay (detergent/lipid micelle substrate). The class given is biochemical. Conditions: detergent/lipid micelle substrate; read-out: DGKζ IC50. The method in brief:
as §1

In assay [5] the test system is pre-activated CD4 T cells and Raji cells. Description: Raji CD4 T Cell IL2 Assay. As to conditions: Homo sapiens, Raji. In kind it is cell-based.

In patent US11866430B2, “Naphthyridinone compounds useful as T cell activators” (priority 2018, dated 2024) one finds IC50 data, which are given here for 19 compounds.

T2 sequence (Q13574 other isoform, or with tags, fused parts or gaps): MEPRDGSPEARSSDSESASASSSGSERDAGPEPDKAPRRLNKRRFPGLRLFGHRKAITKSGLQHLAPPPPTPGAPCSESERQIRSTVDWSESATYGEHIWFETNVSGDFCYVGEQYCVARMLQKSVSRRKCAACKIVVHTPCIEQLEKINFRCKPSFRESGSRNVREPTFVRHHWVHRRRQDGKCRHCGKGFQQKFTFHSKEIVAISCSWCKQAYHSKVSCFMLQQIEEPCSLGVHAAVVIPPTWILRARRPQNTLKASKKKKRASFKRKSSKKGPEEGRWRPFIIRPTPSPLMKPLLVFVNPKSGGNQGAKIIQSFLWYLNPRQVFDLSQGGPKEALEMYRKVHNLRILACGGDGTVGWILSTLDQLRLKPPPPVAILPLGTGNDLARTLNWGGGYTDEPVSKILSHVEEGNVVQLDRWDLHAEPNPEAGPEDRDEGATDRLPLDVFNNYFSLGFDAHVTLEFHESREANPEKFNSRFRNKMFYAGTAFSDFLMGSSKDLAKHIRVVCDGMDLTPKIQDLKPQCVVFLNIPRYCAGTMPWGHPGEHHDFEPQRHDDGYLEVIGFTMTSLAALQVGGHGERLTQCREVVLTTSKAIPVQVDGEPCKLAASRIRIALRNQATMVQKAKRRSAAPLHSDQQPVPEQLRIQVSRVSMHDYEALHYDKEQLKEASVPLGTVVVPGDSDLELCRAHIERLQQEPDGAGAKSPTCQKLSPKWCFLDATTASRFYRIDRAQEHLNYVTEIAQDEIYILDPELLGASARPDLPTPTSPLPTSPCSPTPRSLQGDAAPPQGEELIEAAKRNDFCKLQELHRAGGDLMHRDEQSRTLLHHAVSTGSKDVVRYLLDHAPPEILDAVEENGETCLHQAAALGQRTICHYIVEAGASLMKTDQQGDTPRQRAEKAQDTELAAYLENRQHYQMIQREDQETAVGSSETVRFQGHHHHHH
T1 sequence (P23743 other isoform, or with tags, fused parts or gaps): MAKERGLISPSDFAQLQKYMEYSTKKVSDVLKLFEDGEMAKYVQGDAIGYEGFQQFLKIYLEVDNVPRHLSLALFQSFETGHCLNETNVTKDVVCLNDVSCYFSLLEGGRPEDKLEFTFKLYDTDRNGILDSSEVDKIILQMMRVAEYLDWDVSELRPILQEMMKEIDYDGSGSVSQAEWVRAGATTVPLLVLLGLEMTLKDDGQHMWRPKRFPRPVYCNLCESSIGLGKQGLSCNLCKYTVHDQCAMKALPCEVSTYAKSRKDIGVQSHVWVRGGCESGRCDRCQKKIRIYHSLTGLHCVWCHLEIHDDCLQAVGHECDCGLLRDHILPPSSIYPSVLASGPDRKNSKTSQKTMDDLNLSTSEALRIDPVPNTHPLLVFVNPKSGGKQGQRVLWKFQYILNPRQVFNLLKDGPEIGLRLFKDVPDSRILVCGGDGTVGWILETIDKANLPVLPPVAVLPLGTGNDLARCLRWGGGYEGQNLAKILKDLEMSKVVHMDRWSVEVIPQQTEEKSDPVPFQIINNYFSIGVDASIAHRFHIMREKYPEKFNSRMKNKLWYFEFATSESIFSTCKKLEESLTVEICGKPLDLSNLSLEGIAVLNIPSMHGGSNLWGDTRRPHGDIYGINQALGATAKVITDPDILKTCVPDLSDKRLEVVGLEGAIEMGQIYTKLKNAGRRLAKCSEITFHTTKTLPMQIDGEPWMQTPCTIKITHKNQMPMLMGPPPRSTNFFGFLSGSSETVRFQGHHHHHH

As for `Cc1cccc(O)c1CN1CCN(c2c(C#N)c(=O)n(C)c3ccc(Br)nc23)CC1` [Example 259, 6-bromo-4-{4-[(2-hydroxy-6-methylphenyl)methyl]piperazin-yl}-1-methyl-2-oxo-1,2-dihydro-1,5-naphthyridine-3-carbonitrile], the IC50 on human DGKα [1] stood at 420 nM; at human DGKα [2] it was 490 nM; on human DGKζ [3] it was 4000 nM; on human DGKζ [4], 55000 nM; in assay [5], 16 nM.

Regarding `Cn1c(=O)c(C#N)c(N2CCN(Cc3ccc(C(C)(C)C)cc3O)CC2)c2nc(Cl)ccc21` [Example 261, 4-{4-[(4-tert-butyl-2-hydroxyphenyl)methyl]piperazin-1-yl}-6-chloro-1-methyl-2-oxo-1,2-dihydro-1,5-naphthyridine-3-carbonitrile], the IC50 on human DGKα [1] was 430 nM; against human DGKα [2] it was 710 nM; on human DGKζ [3] it was 10000 nM; on human DGKζ [4] it was > 240000 nM; in assay [5], 21 nM.

As for `Cn1c(=O)c(C#N)c(N2CCN(Cc3ccc(Br)cc3O)CC2)c2nc(C#N)ccc21` [Example 263, 8-{4-[(4-bromo-2-hydroxyphenyl)methyl]piperazin-1-yl}-5-methyl-6-oxo-5,6-dihydro-1,5-naphthyridine-2,7-dicarbonitrile], the IC50 stood at 84 nM on human DGKα [1]; 220 nM against human DGKα [2]; 5200 nM on human DGKζ [3]; 14000 nM on human DGKζ [4]; 35 nM in assay [5].

For `Cn1c(=O)c(C#N)c(N2CCN(Cc3ccc(Cl)cc3O)CC2)c2nc(C#N)ccc21` [Example 269, 8-{4-[(4-chloro-2-hydroxyphenyl)methyl]piperazin-1-yl}-5-methyl-6-oxo-5,6-dihydro-1,5-naphthyridine-2,7-dicarbonitrile], the half-inhibitory concentration (IC50) at human DGKα [1] worked out at 52 nM; at human DGKα [2], 210 nM; on human DGKζ [3], 2800 nM; at human DGKζ [4] it was 26000 nM; in assay [5], 57 nM.

As to `Cn1c(=O)c(C#N)c(N2CCN(Cc3ccccc3Cl)CC2)c2nc(Cl)ccc21` [Example 272, 6-chloro-4-{4-[(2-chlorophenyl)methyl]piperazin-1-yl}-1-methyl-2-oxo-1,2-dihydro-1,5-naphthyridine-3-carbonitrile], the IC50 on human DGKα [1] is 1500 nM; against human DGKα [2], 2300 nM; on human DGKζ [3] it was 10000 nM; at human DGKζ [4], > 240000 nM; in assay [5], 64 nM.

As for `Cc1ccc(CN2CCN(c3c(C#N)c(=O)n(C)c4ccc(Cl)nc34)CC2)c(O)c1` [Example 273, 6-chloro-4-{4-[(2-hydroxy-4-methylphenyl)methyl]piperazin-1-yl}-1-methyl-2-oxo-1,2-dihydro-1,5-naphthyridine-3-carbonitrile], the IC50 turned out to be 18 nM on human DGKα [1]; 82 nM against human DGKα [2]; 7800 nM at human DGKζ [3]; 69000 nM at human DGKζ [4]; 64 nM in assay [5].

Regarding `COc1c(F)cccc1CN1CCN(c2c(C#N)c(=O)n(C)c3ccc(Cl)nc23)CC1` [Example 274, 6-chloro-4-{4-[(3-fluoro-2-methoxyphenyl)methyl]piperazin-1-yl}-1-methyl-2-oxo-1,2-dihydro-1,5-naphthyridine-3-carbonitrile], the IC50 at human DGKα [1] came out at 670 nM; against human DGKα [2], 1600 nM; at human DGKζ [3], 5400 nM; at human DGKζ [4], 30000 nM; in assay [5], 72 nM.

Take `Cn1c(=O)c(C#N)c(N2CCN(Cc3cc(Br)ccc3O)CC2)c2nc(Cl)ccc21` [Example 275, 4-{4-[(5-bromo-2-hydroxyphenyl)methyl]piperazin-1-yl}-6-chloro-1-methyl-2-oxo-1,2-dihydro-1,5-naphthyridine-3-carbonitrile]: the half-maximal inhibitory concentration (IC50) at human DGKα [1] was 300 nM; on human DGKα [2], 770 nM; on human DGKζ [3] it was 10000 nM; at human DGKζ [4], 58000 nM; in assay [5], 73 nM.

Regarding `Cc1ccc2c(n1)c(N1CCN(Cc3cc(Br)ccc3O)CC1)c(C#N)c(=O)n2C` [Example 277, 4-{4-[(5-bromo-2-hydroxyphenyl)methyl]piperazin-1-yl}-1,6-dimethyl-2-oxo-1,2-dihydro-1,5-naphthyridine-3-carbonitrile], the IC50 came to 750 nM on human DGKα [1]; 1700 nM on human DGKα [2]; 13000 nM at human DGKζ [3]; 45000 nM on human DGKζ [4]; 79 nM in assay [5].

Take `COc1ccc(CN2CCN(c3c(C#N)c(=O)n(C)c4ccc(Cl)nc34)CC2)cc1F` [Example 279, 6-chloro-4-{4-[(3-fluoro-4-methoxyphenyl)methyl]piperazin-1-yl}-1-methyl-2-oxo-1,2-dihydro-1,5-naphthyridine-3-carbonitrile]: the IC50 at human DGKα [1] worked out at 380 nM; against human DGKα [2] it was 810 nM; on human DGKζ [3], 5800 nM; on human DGKζ [4] it was 56000 nM; in assay [5] it was 92 nM.

On to `Cc1cccc(CN2CCN(c3c(C#N)c(=O)n(C)c4ccc(Cl)nc34)CC2)c1F` [Example 281, 6-chloro-4-{4-[(2-fluoro-3-methylphenyl)methyl]piperazin-1-yl}-1-methyl-2-oxo-1,2-dihydro-1,5-naphthyridine-3-carbonitrile], for which the IC50 at human DGKα [1] worked out at 390 nM; against human DGKα [2], 2000 nM; at human DGKζ [3] it was 9900 nM; at human DGKζ [4], 49000 nM; in assay [5], 93 nM.

Consider `Cc1ccc(O)c(CN2CCN(c3c(C#N)c(=O)n(C)c4ccc(Cl)nc34)CC2)c1` [Example 283, 6-chloro-4-{4-[(2-hydroxy-5-methylphenyl)methyl]piperazin-1-yl}-1-methyl-2-oxo-1,2-dihydro-1,5-naphthyridine-3-carbonitrile], for which the IC50 is 120 nM at human DGKα [1]; 210 nM on human DGKα [2]; 3000 nM on human DGKζ [3]; 27000 nM on human DGKζ [4]; 94 nM in assay [5].

As for `Cn1c(=O)c(C#N)c(N2CCN(Cc3ccc(F)cc3Cl)CC2)c2nc(Cl)ccc21` [Example 287, 6-chloro-4-{4-[(2-chloro-4-fluorophenyl)methyl]piperazin-1-yl}-1-methyl-2-oxo-1,2-dihydro-1,5-naphthyridine-3-carbonitrile], the IC50 was 2100 nM on human DGKα [1]; 18000 nM at human DGKα [2]; 29000 nM at human DGKζ [3]; > 240000 nM at human DGKζ [4]; 100 nM in assay [5].

`Cn1c(=O)c(C#N)c(N2CCN(Cc3ccc(Cl)cc3O)CC2)c2nc(Cl)ccc21` [Example 288, 6-chloro-4-{4-[(4-chloro-2-hydroxyphenyl)methyl]piperazin-1-yl}-methyl-2-oxo-1,2-dihydro-1,5-naphthyridine-3-carbonitrile]: the IC50 was 37 nM at human DGKα [1]; 33 nM against human DGKα [2]; 2300 nM on human DGKζ [3]; > 240000 nM at human DGKζ [4]; 100 nM in assay [5].

In the case of `Cc1cccc(O)c1CN1CCN(c2c(C#N)c(=O)n(C)c3ccc(Cl)nc23)CC1` [Example 292, 6-chloro-4-{4-[(2-hydroxy-6-methylphenyl)methyl]piperazin-1-yl}-1-methyl-2-oxo-1,2-dihydro-1,5-naphthyridine-3-carbonitrile], the IC50 was 270 nM on human DGKα [1]; 480 nM on human DGKα [2]; 2400 nM at human DGKζ [3]; 25000 nM on human DGKζ [4]; 110 nM in assay [5].

In the case of `Cn1c(=O)c(C#N)c(N2CCN(Cc3cccc(Cl)c3O)CC2)c2nc(Cl)ccc21` [Example 293, 6-chloro-4-{4-[(3-chloro-2-hydroxyphenyl)methyl]piperazin-1-yl}-1-methyl-2-oxo-1,2-dihydro-1,5-naphthyridine-3-carbonitrile], the IC50 at human DGKα [1] was determined as 270 nM; against human DGKα [2] it was 600 nM; at human DGKζ [3] it was 6000 nM; on human DGKζ [4] it was 58000 nM; in assay [5] it was 110 nM.

Consider `COc1ccc(CN2CCN(c3c(C#N)c(=O)n(C)c4ccc(Br)nc34)CC2)c(O)c1` [Example 295, 6-bromo-4-{4-[(2-hydroxy-4-methoxyphenyl)methyl]piperazin-1-yl}-1-methy-2-oxo-1,2-dihydro-1,5-naphthyridine-3-carbonitrile], for which the IC50 on human DGKα [1] came out at 130 nM; on human DGKα [2], 160 nM; on human DGKζ [3], 6900 nM; on human DGKζ [4] it was 55000 nM; in assay [5], 140 nM.

Take `Cn1c(=O)c(C#N)c(N2CCN(Cc3ccccc3Cl)CC2)c2nc(Br)ccc21` [Example 300, 6-bromo-4-{4-[(2-chlorophenyl)methyl]piperazin-1-yl}-1-methyl-2-oxo-1,2-dihydro-1,5-naphthyridine-3-carbonitrile]: the IC50 on human DGKα [1] was 2000 nM; at human DGKα [2], 24000 nM; on human DGKζ [3] it was 98000 nM; on human DGKζ [4], > 240000 nM; in assay [5] it was 160 nM.

As to `Cn1c(=O)c(C#N)c(N2CCN(Cc3cccc(F)c3O)CC2)c2nc(Br)ccc21` [Example 304, 6-bromo-4-{4-[(3-fluoro-2-hydroxyphenyl)methyl]piperazin-1-yl}-1-methyl-2-oxo-1,2-dihydro-1,5-naphthyridine-3-carbonitrile], the IC50 is 330 nM at human DGKα [1]; 610 nM at human DGKα [2]; 5800 nM on human DGKζ [3]; 68000 nM on human DGKζ [4]; 190 nM in assay [5].
